Measurements published in PMC11881906, “Development of xanthone derivatives as effective broad-spectrum antimicrobials: Disrupting cell wall and inhibiting DNA synthesis” (Science Advances, 2025).
Converted amounts (≈) assume the structure as drawn. Where two headings read alike, the source gives them in different places.

How the values were obtained:
[1] = system: P. aeruginosa ATCC 9027; assay: Serial passage resistance induction; format: cell-based, Pseudomonas aeruginosa; conditions: 20-day passages at 0.5× MIC
Experimental: (§1) The bacteria were grown in a medium containing 0.5× MIC of each compound to prepare the bacterial suspension for the next MIC determination. The MICs were then recorded after incubation at 37°C for 24 hours. Daily passages were continued until the initial MIC increased by more than fourfold. The stability of acquired resistance was investigated by MIC determination and repeated for 20 days.

[2] = system: E. coli ATCC 25922; assay: RNA-seq transcriptome response; format: cell-based, Escherichia coli; conditions: 4× MIC, 2 hours
Experimental: After exposure, 1-ml aliquots of cells were immediately pelleted at 4°C by centrifugation for 2 min at 2000 rpm. The supernatants were removed and immediately frozen in liquid nitrogen. The samples were stored at −80°C for later total RNA isolation. Total RNA was extracted using the bacterial RNA kit (Omega Bio-Tek, USA) according to the manufacturer’s instructions. The RNA integrity number values were obtained to assess RNA quality using an Agilent Genomics 2200 Tape Station instrument.
A total amount of 2 to 5 ng of the RNA per sample was executed as the input material to construct each cDNA library for RNA-seq using the NEBNext Ultra Directional RNA Library prep kit from Illumina. The quality of the resulting libraries was checked using Agilent High Sensitivity DNA chips to ensure proper library size distribution and the absence of small adapters.
Read mapping was aligned using Bowtie2 ([74]). HTSeq v0.6.1 was used for quantification of expression levels ([75]). DESeq2 on the R package (v1.12.4) was used to calculate DEGs. Differential expression was computed using edgeR: exactTest for each treatment versus the untreated control ([76]). The E. coli database used for mapping was GCF_017357505.1_ASM1735750v1_genomic.fna. Both the GO and KEGG (KEGG Ortholog database) enrichment analyses were done with the Fisher’s exact test. All P values were adjusted with the Benjamini-Hochberg procedure to generate false discovery rates (adjusted P values). GO enrichment analysis was carried out using the clusterProfiler package on the R platform ([77]). KEGG pathway mapping and figure generation were performed with the PathView website ([78]). COG of protein databases were searched with an E value of 1e^-5. For hierarchal clustering analysis of gene expression, the gene expression levels were normalized to z scores of log10 (FPKM + 1), where FPKM is fragments per kilobase per million. For hierarchal clustering analysis of the regulation of transcription factors, the unweighted pair group method with arithmetic mean (UPGMA) method was used as the clustering method. […] Volcano plots were generated by plot_volcano from soothsayer (https://github.com/jolespin/soothsayer) in Python v.3.6.6. Directed networks were constructed and plotted using NetworkX and Matplotlib Python packages, respectively. Hierarchical clustering analysis and heatmap calculation were performed with the pheatmap package on the R platform. The umap package on the R platform was used for uniform manifold approximation and projection (UMAP) analysis of FPKM vectors of each transcriptome. The figures were created via the ggplot2 package ([79]).

[3] = system: MRSA N315; assay: MIC, broth microdilution; format: cell-based; conditions: Staphylococcus aureus, 24-hour incubation, MHB, read-out: MIC90 MRSA N315
Experimental: (§2) MIC was determined using the broth microdilution method in accordance with Clinical and Laboratory Standards Institute guidelines. All compounds were dissolved in dimethyl sulfoxide (DMSO; final DMSO concentration of less than 0.5%) and sterile double-distilled water and then diluted with Mueller-Hinton broth (MHB). Each compound’s stock solution was serially twofold diluted, resulting in concentrations ranging from 0.39 to 100 μg/ml, and thereafter added to sterile 96-well plates. All bacterial cell suspensions were adjusted in MHB to attain a starting inoculum of 1 × 10^6 cells/ml. A total of 100 μl volume of the bacterial suspension was then added to each well. Following a 24-hour incubation at 37°C, the optical density at 600 nm (OD600) was confirmed by measuring absorbance at 600 nm with a BioTek microplate reader. […] All measurements were repeated three times with duplicates each time.

[4] = system: MRSA NCTC 10442; assay: MIC, broth microdilution; format: cell-based; conditions: Staphylococcus aureus; 24-hour incubation, MHB; read-out: MIC90 MRSA NCTC 10442
Experimental: as §2

[5] = system: S. aureus ATCC 29213; assay: MIC, broth microdilution; format: cell-based; conditions: Staphylococcus aureus, ATCC29213, 24 h, 24-hour incubation, MHB; read-out: MIC90 S. aureus ATCC 29213
Experimental: as §2

[6] = system: E. coli ATCC 25922; assay: MIC, broth microdilution; format: cell-based, Escherichia coli; conditions: 24-hour incubation, MHB; for MIC90: Escherichia coli, ATCC25922, 24 h, read-out: MIC90 E. coli ATCC 25922
Experimental: as §2

[7] = system: rabbit erythrocytes; assay: Hemolysis assay; format: cell-based; conditions: concentration causing 50% hemolysis of red blood cells; 1 hour, 37°C
Experimental: The hemolytic activity of antimicrobial agents was investigated as previously described ([70]). Briefly, the rabbit erythrocytes were centrifuged at 2500 rpm for 3 min before being washed twice with sterile phosphate-buffered saline (PBS) (pH 7.4). Subsequently, the erythrocytes were diluted with PBS to a final concentration of 8% (v/v). The DMSO-dissolved compounds were twofold serially diluted in PBS to achieve a final concentration with DMSO less than 0.5%. […] Sterile PBS and 0.2% Triton X-100 were used as negative and positive controls, respectively. After 1 hour of incubation at 37°C, the tested samples were centrifuged at 2500 rpm for 5 min, and aliquots of the supernatant were added to 96-well microplates. The hemoglobin release was determined by measuring the absorbance at 576 nm using a BioTek multimode reader. The percentage of hemolytic activity was calculated using the following formula: Hemolysis rate (%) = [OD576 (compound) − OD576 (PBS)]/[OD576 (Triton X-100) − OD576 (PBS)] × 100. All measurements were repeated three times with duplicates each time.

[8] = system: tested strains (Gram-positive and Gram-negative bacteria); assay: MIC, summary over the tested strains; format: cell-based; conditions: 24 h, read-out: MICs against the tested strains
Experimental: as §2

[9] = not the whole compound, cited from earlier work
[10] = system: A. baumannii ATCC 17978; assay: MIC, broth microdilution; format: cell-based; conditions: Acinetobacter baumannii, ATCC17978; 24-hour incubation, MHB
Experimental: as §2

[11] = system: A. baumannii R2889; assay: MIC, broth microdilution; format: cell-based; conditions: Acinetobacter baumannii, 24-hour incubation, MHB
Experimental: as §2

[12] = system: K. pneumonia ATCC 10031; assay: MIC, broth microdilution; format: cell-based; conditions: Klebsiella pneumoniae, ATCC10031; 24-hour incubation, MHB
Experimental: as §2

[13] = system: K. pneumonia ATCC 14581; assay: MIC, broth microdilution; format: cell-based; conditions: Klebsiella pneumoniae, ATCC14581; 24-hour incubation, MHB
Experimental: as §2

[14] = system: P. aeruginosa ATCC 9027; assay: MIC, broth microdilution; format: cell-based; conditions: Pseudomonas aeruginosa, ATCC9027; 24-hour incubation, MHB
Experimental: as §2

[15] = system: Gram-positive bacteria; assay: MIC, summary over Gram-positive strains; format: cell-based; conditions: read-out: MICs against Gram-positive bacteria, three Gram-positive strains
Experimental: as §2

[16] = system: Gram-negative bacteria; assay: MIC, Gram-negative strains; format: cell-based; conditions: read-out: MICs against Gram-negative bacteria
Experimental: as §2

[17] = system: K. pneumoniae; assay: MIC, summary over K. pneumoniae strains; format: cell-based; conditions: Klebsiella pneumoniae, two strains; read-out: MICs against K. pneumoniae
Experimental: as §2

[18] = CCK-8 cytotoxicity assay; format: cell-based; conditions: mouse, NCTC clone 929 fibroblast cells, 25 μg/ml, read-out: %Viable cells NCTC clone 929 cells
Experimental: Cytotoxicity of the compound tested was assessed by CCK-8 assays as previously described ([71]). […] Following a 24-hour incubation, 10 μl of CCK-8 reagent was added to each well and incubated for 1 hour. The absorbance at 450 nm was measured by a microplate reader. All measurements were repeated three times with duplicates each time.

[19] = system: S. aureus ATCC 29213; assay: Serial passage resistance induction; format: cell-based, Staphylococcus aureus; conditions: 20-day passages at 0.5× MIC
Experimental: as §1

## O=C(O)c1cn(C2CC2)c2cc(N3CCNCC3)c(F)cc2c1=O [CPF, ciprofloxacin, reference compound]
[1]
  increase in MIC values during passages: ~64 fold
[2]
  genes expressed: 4682 genes
[2]; vs untreated
  Log2FC dnaE (DNA polymerase III subunit alpha): 1.7739
  Log2FC dnaN (DNA polymerase III subunit beta): 3.0865
  Log2FC dnaQ (DNA polymerase III subunit epsilon): 1.3670
  Log2FC dnaT (primosomal protein DnaT): 2.2444
  Log2FC dnaX (DNA polymerase III subunit gamma/tau): 1.7268
  Log2FC gyrA (DNA topoisomerase (ATP-hydrolyzing) subunit A): 2.2544
  Log2FC gyrB (DNA topoisomerase (ATP-hydrolyzing) subunit B): 2.4048
  Log2FC holB (DNA polymerase III subunit delta'): 1.9890
  Log2FC holD (DNA polymerase III subunit psi): 2.4551
  Log2FC parC (DNA topoisomerase IV subunit A): 1.5215
  Log2FC parE (DNA topoisomerase IV subunit B): 2.4557
  Log2FC priA (primosomal protein N'): 2.8529
  Log2FC priB (primosomal replication protein N): 3.5288
  Log2FC priC (primosomal replication protein N''): 1.7101
  Log2FC recA (recombinase RecA): 6.2751
  Log2FC recF (DNA replication/repair protein RecF): 2.2046
  Log2FC recG (ATP-dependent DNA helicase RecG): 1.1384
  Log2FC recJ (single-stranded-DNA-specific exonuclease RecJ): 1.9882
  Log2FC recO (DNA repair protein RecO): 1.9736
  Log2FC recR (recombination mediator RecR): 1.8874
  Log2FC ruvA (Holliday junction branch migration protein RuvA): 2.8598
  Log2FC ruvB (Holliday junction branch migration DNA helicase RuvB): 3.4475
  Log2FC ruvC (crossover junction endodeoxyribonuclease RuvC): 1.8052
  Log2FC ssb1 (single-stranded DNA-binding protein SSB1): 2.6468
  down-regulated genes: 130 genes
  up-regulated genes: 2246 genes
[2]; vs untreated, P < 0.05, absolute log2 fold change > 1
  differentially expressed genes: 2376 genes

## CC(C)=CCOc1cc(OCCCN)cc2oc3cc(OCCCN)ccc3c(=O)c12 [XT07]
[3]
  MIC90: 12.5 µg/mL (≈ 29.3 µM)
[4]
  MIC90: 12.5 µg/mL (≈ 29.3 µM)
[5]
  MIC90: 12.5 µg/mL (≈ 29.3 µM)
[6]
  MIC90: 25 µg/mL (≈ 58.6 µM)
[7]
  HC50: >200 µg/mL
[8]
  MIC: 12.5 to 50 µg/mL (≈ 29.3 to 117 µM)
[9]; for the free primary amine group
  pKa: 10.54

## CC(C)=CCOc1cc(OCCCN2CCSCC2)cc2oc3cc(OCCCN4CCSCC4)ccc3c(=O)c12 [XT11]
[3]
  MIC90: > 50 µg/mL
[4]
  MIC90: > 50 µg/mL
[5]
  MIC90: > 50 µg/mL
[6]
  MIC90: > 50 µg/mL
[7]
  HC50: >200 µg/mL
[8]
  MIC: > 50 µg/mL
[9]; for the free thiomorpholine group
  pKa: 9.0

## [H]/N=C(/N)NCCCOc1ccc2c(=O)c3c(OCC=C(C)CCC=C(C)C)cc(OCCCNC(=N)N)cc3oc2c1 [XT18]
[10]
  MIC90: 25 µg/mL (≈ 43.2 µM)
[11]
  MIC90: 12.5 µg/mL (≈ 21.6 µM)
[12]
  MIC90: 6.25 µg/mL (≈ 10.8 µM)
[13]
  MIC90: 12.5 µg/mL (≈ 21.6 µM)
[3]
  MIC90: 0.78 µg/mL (≈ 1.35 µM)
[4]
  MIC90: 0.78 µg/mL (≈ 1.35 µM)
[14]
  MIC90: 12.5 µg/mL (≈ 21.6 µM)
[5]
  MIC90: 0.78 µg/mL (≈ 1.35 µM)
[6]
  MIC90: 1.56 µg/mL (≈ 2.7 µM)
[7]
  HC50: 65.3 ± 2.75 µg/mL
[15]
  MIC: 0.39 µg/mL (≈ 0.674 µM)
[16]
  MIC: 1.56 µg/mL (≈ 2.7 µM)

## COc1cc(OCCCNC(=N)N)cc2oc3cc(OCCCNC(=N)N)ccc3c(=O)c12 [XT19]
[3]
  MIC90: 12.5 µg/mL (≈ 27.4 µM)
[4]
  MIC90: 6.25 µg/mL (≈ 13.7 µM)
[5]
  MIC90: 6.25 µg/mL (≈ 13.7 µM)
[6]
  MIC90: 100 µg/mL (≈ 219 µM)
[7]
  HC50: >200 µg/mL
[15]
  MIC: 6.25 to 12.5 µg/mL (≈ 13.7 to 27.4 µM)
[16]
  MIC: 100 µg/mL (≈ 219 µM)

## CC(C)=CCOc1cc(OCCCCCCNC(=N)N)cc2oc3cc(OCCCCCCNC(=N)N)ccc3c(=O)c12 [XT44]
[10]
  MIC90: 6.25 µg/mL (≈ 10.5 µM)
[11]
  MIC90: 12.5 µg/mL (≈ 21 µM)
[12]
  MIC90: 0.78 µg/mL (≈ 1.31 µM)
[13]
  MIC90: 0.78 µg/mL (≈ 1.31 µM)
[3]
  MIC90: 0.098 µg/mL (≈ 0.165 µM)
[4]
  MIC90: 0.098 µg/mL (≈ 0.165 µM)
[14]
  MIC90: 25 µg/mL (≈ 42 µM)
[5]
  MIC90: 0.098 µg/mL (≈ 0.165 µM)
[6]
  MIC90 E. coli ATCC 25922: 1.56 µg/mL (≈ 2.62 µM)
  MIC90: 1.56 to 12.5 µg/mL (≈ 2.62 to 21 µM)
[7]
  HC50: >200 µg/mL
[15]
  MIC: 0.098 to 1.56 µg/mL (≈ 0.165 to 2.62 µM)
[17]
  MIC: 0.78 µg/mL (≈ 1.31 µM)
[18]
  viability at 24 h, 25 μg/ml: 4.87 ± 0.4%

## CCn1cc(C(=O)O)c(=O)c2cc(F)c(N3CCNCC3)cc21 [norfloxacin, reference compound]
[19]
  increase in MIC values during passages: approximately 16 fold
